According to patent US20240208992A1, “MACROCYCLES AS CFTR MODULATORS” (Idorsia Pharmaceuticals Ltd, priority 2021, published 2024):

Biological target: human F508del-CFTR (Homo sapiens, UniProt P13569, DEL508-508)
Test: F508del-CFTR cell surface expression (corrector activity), DiscoveRx ß-galactosidase complementation chemiluminescence assay in recombinant U2OS cell line;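 note: U2OS cells co-expressing ProLink-tagged F508del-CFTR and a membrane-anchored enzyme acceptor, where more surface CFTR restores β-galactosidase activity measured by chemiluminescence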
Conditions: for Emax: U2OS
[1] = EC50, F508del-CFTR cell surface expression, U2OS cells, 16h compound incubation, geomean values
[2] = in relation to Emax of corrector lumacaftor (=100%), arithmetic mean values
[3] = EC50, F508del-CFTR cell surface expression, U2OS cell line, 16h compound incubation, geomean values
[4] = in relation to the Emax of the corrector lumacaftor (=100%), U2OS cell line, 16h compound incubation, arithmetic mean values

human F508del-CFTR, sequence (P13569 with tags, fused parts or gaps DEL508-508): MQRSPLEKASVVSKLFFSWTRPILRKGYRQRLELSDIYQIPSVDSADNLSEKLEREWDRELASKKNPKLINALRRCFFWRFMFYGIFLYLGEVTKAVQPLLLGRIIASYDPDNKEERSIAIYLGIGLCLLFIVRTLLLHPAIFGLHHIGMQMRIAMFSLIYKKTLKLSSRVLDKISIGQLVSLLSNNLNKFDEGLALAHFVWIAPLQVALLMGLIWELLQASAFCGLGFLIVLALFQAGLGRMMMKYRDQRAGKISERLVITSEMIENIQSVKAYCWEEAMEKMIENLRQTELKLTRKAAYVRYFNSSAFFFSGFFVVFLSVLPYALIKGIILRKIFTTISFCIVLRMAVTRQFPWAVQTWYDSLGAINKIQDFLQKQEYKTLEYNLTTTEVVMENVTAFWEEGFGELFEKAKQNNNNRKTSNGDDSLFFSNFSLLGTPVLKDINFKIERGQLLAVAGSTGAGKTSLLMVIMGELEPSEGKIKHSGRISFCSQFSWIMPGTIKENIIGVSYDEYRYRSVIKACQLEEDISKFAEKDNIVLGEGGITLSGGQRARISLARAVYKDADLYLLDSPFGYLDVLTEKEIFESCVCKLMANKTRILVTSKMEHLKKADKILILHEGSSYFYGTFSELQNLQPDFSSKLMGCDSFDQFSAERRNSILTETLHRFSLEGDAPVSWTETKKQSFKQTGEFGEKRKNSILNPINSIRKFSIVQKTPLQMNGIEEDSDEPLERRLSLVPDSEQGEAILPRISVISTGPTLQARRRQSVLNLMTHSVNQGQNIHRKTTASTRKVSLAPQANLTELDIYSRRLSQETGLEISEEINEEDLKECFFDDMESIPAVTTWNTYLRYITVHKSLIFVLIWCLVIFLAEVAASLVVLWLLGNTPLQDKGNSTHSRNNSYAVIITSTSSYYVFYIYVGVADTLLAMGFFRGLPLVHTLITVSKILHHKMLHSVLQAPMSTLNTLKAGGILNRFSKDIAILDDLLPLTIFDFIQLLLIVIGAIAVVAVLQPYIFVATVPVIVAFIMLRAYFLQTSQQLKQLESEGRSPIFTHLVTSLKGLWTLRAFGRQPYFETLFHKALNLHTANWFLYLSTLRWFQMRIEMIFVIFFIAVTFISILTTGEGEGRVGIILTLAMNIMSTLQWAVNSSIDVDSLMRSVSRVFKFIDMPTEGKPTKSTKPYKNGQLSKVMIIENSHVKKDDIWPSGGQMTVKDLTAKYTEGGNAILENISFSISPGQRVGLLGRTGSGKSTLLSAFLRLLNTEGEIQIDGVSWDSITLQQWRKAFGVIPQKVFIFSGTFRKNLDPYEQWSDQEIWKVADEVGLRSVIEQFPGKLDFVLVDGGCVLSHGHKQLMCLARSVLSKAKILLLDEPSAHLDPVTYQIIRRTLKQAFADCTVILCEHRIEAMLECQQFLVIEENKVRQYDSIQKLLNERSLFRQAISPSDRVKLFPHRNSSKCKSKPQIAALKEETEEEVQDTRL

| Compound | EC50 [3] [nM] | Emax [4] [%] | other results |
| --- | --- | --- | --- |
| COc1nccc2c1C(=O)N[C@H](C(=O)NCCc1cc(C3CC3)no1)CC(=O)N(C)[C@@H](CC(C)C)C(=O)N1CC[C@@H](c3ccccc3)C[C@H]1C(=O)N[C@H](Cc1ccccc1)CO2 (single isomer, unassigned) [Example 671] | – | – | EC50 [1]: 235 nM; Emax [2]: 179% |
| CC(C)C[C@H]1C(=O)N2CC[C@H](c3ccccc3)C[C@H]2C(=O)N[C@H](Cc2ccccc2)COc2cnc3ccccc3c2C(=O)N[C@H](C(=O)NCCc2cc(C3CC3)no2)CC(=O)N1C (single isomer, unassigned) [Example 674] | – | – | EC50 [1]: 262 nM; Emax [2]: 133% |
| COc1cc(CCNC(=O)[C@@H]2CC(=O)N(C)[C@@H](CC(C)C)C(=O)N3CCCC[C@@H]3C(=O)N[C@H](Cc3ccccc3)COc3ccc4ncc(F)cc4c3C(=O)N2)on1 (single isomer, unassigned) [Example 899] | – | – | EC50 (EC50, F508del-CFTR cell surface expression, U2OS cells, 16h compound incubation, geomean of several measurements): 819 nM; Emax (in relation to the Emax of the corrector lumacaftor (=100%), U2OS cells, 16h compound incubation, arithmetic mean): 294% |
| CCC(=O)CCCCC[C@@H]1NC(=O)[C@H]2CCCCN2C(=O)[C@H]([C@@H](C)CC)NC(=O)[C@H](Cc2cn(OC)c3ccccc23)NC1=O [Apicidin, reference compound] | – | – | EC50 (EC50, recombinant U2OS cell line (DiscoveRx) expressing PK-tagged human F508del-CFTR, 16h compound incubation, same conditions as example compounds): > 20000 nM |
| CC(C)C[C@H]1C(=O)N(CCC2CCCCC2)CC(=O)N[C@H](Cc2ccccc2)COc2cc3c(cc2C(=O)N[C@H](C(=O)NCCc2ccc4c(c2)OCO4)CC(=O)N1C)OCO3 [Example 2, (7R,13S,17S)-N-(2-(benzo[d][1,3]dioxol-5-yl)ethyl)-7-benzyl-11-(2-cyclohexylethyl)-13-isobutyl-14-methyl-9,12,15,19-tetraoxo-6,7,8,9,10,11,12,13,14,15,16,17,18,19-tetradecahydro-[1,3]dioxolo[4′,5′:4,5]benzo[1,2-p][1]oxa[4,7,10,14]tetraazacycloheptadecine-17-carboxamide] | 110 | 150 | – |
| COc1cc2c(cc1OC)C(=O)N[C@H](C(=O)NCCc1ccc3c(c1)CCCO3)CC(=O)N(C)[C@@H](CC(C)C)C(=O)N(C)CC(=O)N[C@H](Cc1ccccc1)CO2 [Example 3, (3R,9S,13S)-3-benzyl-N-(2-(chroman-6-yl)ethyl)-9-isobutyl-17,18-dimethoxy-7,10-dimethyl-5,8,11,15-tetraoxo-2,3,4,5,6,7,8,9,10,11,12,13,14,15-tetradecahydrobenzo[p][1]oxa[4,7,10,14]tetraazacycloheptadecine-13-carboxamide] | 816 | 151 | – |
| COc1cc2c(cc1OC)C(=O)N[C@H](C(=O)NCCc1ccc3ccoc3c1)CC(=O)N(C)[C@@H](CC(C)C)C(=O)N(C)CC(=O)N[C@H](Cc1ccccc1)CO2 [Example 4, (3R,9S,13S)-N-(2-(benzofuran-6-yl)ethyl)-3-benzyl-9-isobutyl-17,18-dimethoxy-7,10-dimethyl-5,8,11,15-tetraoxo-2,3,4,5,6,7,8,9,10,11,12,13,14,15-tetradecahydrobenzo[p][1]oxa[4,7,10,14]tetraazacycloheptadecine-13-carboxamide] | 673 | 195 | – |
| CN1CC(=O)N[C@H](Cc2ccccc2)COc2cc3c(cc2C(=O)N[C@H](C(=O)NCCc2ccc4c(c2)OCO4)CC(=O)N(C)[C@@H](CC2CCC2)C1=O)OCO3 [Example 7, (7R,13S,17S)-N-(2-(benzo[d][1,3]dioxol-5-yl)ethyl)-7-benzyl-13-(cyclobutylmethyl)-11,14-dimethyl-9,12,15,19-tetraoxo-6,7,8,9,10,11,12,13,14,15,16,17,18,19-tetradecahydro-[1,3]dioxolo[4′,5′:4,5]benzo[1,2-p][1]oxa[4,7,10,14]tetraazacycloheptadecine-17-carboxamide] | 398 | 118 | – |
| COc1cc2c(cc1OC)C(=O)N[C@H](C(=O)NCCc1ccc3c(c1)OCCN3C)CC(=O)N(C)[C@@H](CC(C)C)C(=O)N(C)CC(=O)N[C@H](Cc1ccccc1)CO2 [Example 8, (3R,9S,13S)-3-benzyl-9-isobutyl-17,18-dimethoxy-7,10-dimethyl-N-(2-(4-methyl-3,4-dihydro-2H-benzo[b][1,4]oxazin-7-yl)ethyl)-5,8,11,15-tetraoxo-2,3,4,5,6,7,8,9,10,11,12,13,14,15-tetradecahydrobenzo[p][1]oxa[4,7,10,14]tetraazacycloheptadecine-13-carboxamide] | 887 | 210 | – |
| COc1cccc(CCNC(=O)[C@@H]2CC(=O)N(C)[C@@H](CC(C)C)C(=O)N3CCCC[C@@H]3C(=O)N[C@H](Cc3ccccc3)COc3ccc4ncn(C)c4c3C(=O)N2)c1 [Example 17, (8S,12S,18aR,21R)-21-benzyl-12-isobutyl-N-(3-methoxyphenethyl)-5,11-dimethyl-6,10,13,19-tetraoxo-6,7,8,9,10,11,12,13,16,17,18,18a,19,20,21,22-hexadecahydro-5H,15H-imidazo[4′,5′:5,6]benzo[1,2-p]pyrido[2,1-f][1]oxa[4,7,10,14]tetraazacycloheptadecine-8-carboxamide] | 466 | 180 | – |
| CC(C)C[C@H]1C(=O)N2CCCC[C@@H]2C(=O)N[C@H](Cc2ccccc2)COc2ccc3ncn(C)c3c2C(=O)N[C@H](C(=O)NCCc2nc3c(s2)CCC3)CC(=O)N1C [Example 29, (8S,12S,18aR,21R)-21-benzyl-N-(2-(5,6-dihydro-4H-cyclopenta[d]thiazol-2-yl)ethyl)-12-isobutyl-5,11-dimethyl-6,10,13,19-tetraoxo-6,7,8,9,10,11,12,13,16,17,18,18a,19,20,21,22-hexadecahydro-5H,15H-imidazo[4′,5′:5,6]benzo[1,2-p]pyrido[2,1-f][1]oxa[4,7,10,14]tetraazacycloheptadecine-8-carboxamide] | 439 | 140 | – |
| CC(C)C[C@H]1C(=O)N2CCCC[C@@H]2C(=O)N[C@H](Cc2ccccc2)COc2ccc3ncn(C)c3c2C(=O)N[C@H](C(=O)NCCc2noc3ccccc23)CC(=O)N1C [Example 30, (8S,12S,18aR,21R)-N-(2-(benzo[d]isoxazol-3-yl)ethyl)-21-benzyl-12-isobutyl-5,11-dimethyl-6,10,13,19-tetraoxo-6,7,8,9,10,11,12,13,16,17,18,18a,19,20,21,22-hexadecahydro-5H,15H-imidazo[4′,5′:5,6]benzo[1,2-p]pyrido[2,1-f][1]oxa[4,7,10,14]tetraazacycloheptadecine-8-carboxamide] | 275 | 113 | – |

The next lines start with results.

| EC50 [3] [nM] | Emax [4] [%] | Compound | other results |
| --- | --- | --- | --- |
| 388 | 117 | COc1cccc2c1C(=O)N[C@H](C(=O)NCCc1cnccn1)CC(=O)N(C)[C@@H](CC(C)C)C(=O)N(CCC1CCCCC1)CC(=O)N[C@H](Cc1ccccc1)CO2 [Example 18, (3R,9S,13S)-3-benzyl-7-(2-cyclohexylethyl)-9-isobutyl-16-methoxy-10-methyl-5,8,11,15-tetraoxo-N-(2-(pyrazin-2-yl)ethyl)-2,3,4,5,6,7,8,9,10,11,12,13,14,15-tetradecahydrobenzo[p][1]oxa[4,7,10,14]tetraazacycloheptadecine-13-carboxamide] | – |
| 743 | 125 | COc1cccc2c1C(=O)N[C@H](C(=O)NCCc1ccncn1)CC(=O)N(C)[C@@H](CC(C)C)C(=O)N(CCC1CCCCC1)CC(=O)N[C@H](Cc1ccccc1)CO2 [Example 19, (3R,9S,13S)-3-benzyl-7-(2-cyclohexylethyl)-9-isobutyl-16-methoxy-10-methyl-5,8,11,15-tetraoxo-N-(2-(pyrimidin-4-yl)ethyl)-2,3,4,5,6,7,8,9,10,11,12,13,14,15-tetradecahydrobenzo[p][1]oxa[4,7,10,14]tetraazacycloheptadecine-13-carboxamide] | – |
| 721 | 102 | COc1cccc2c1C(=O)N[C@H](C(=O)NCCc1cncnc1)CC(=O)N(C)[C@@H](CC(C)C)C(=O)N(CCC1CCCCC1)CC(=O)N[C@H](Cc1ccccc1)CO2 [Example 20, (3R,9S,13S)-3-benzyl-7-(2-cyclohexylethyl)-9-isobutyl-16-methoxy-10-methyl-5,8,11,15-tetraoxo-N-(2-(pyrimidin-5-yl)ethyl)-2,3,4,5,6,7,8,9,10,11,12,13,14,15-tetradecahydrobenzo[p][1]oxa[4,7,10,14]tetraazacycloheptadecine-13-carboxamide] | – |
| 350 | 108 | COc1cccc2c1C(=O)N[C@H](C(=O)NCCCOC(F)F)CC(=O)N(C)[C@@H](CC(C)C)C(=O)N(CCC1CCCCC1)CC(=O)N[C@H](Cc1ccccc1)CO2 [Example 21, (3R,9S,13S)-3-benzyl-7-(2-cyclohexylethyl)-N-(3-(difluoromethoxy)propyl)-9-isobutyl-16-methoxy-10-methyl-5,8,11,15-tetraoxo-2,3,4,5,6,7,8,9,10,11,12,13,14,15-tetradecahydrobenzo[p][1]oxa[4,7,10,14]tetraazacycloheptadecine-13-carboxamide] | – |
| 600 | 104 | COCCOCCNC(=O)[C@@H]1CC(=O)N(C)[C@@H](CC(C)C)C(=O)N(CCC2CCCCC2)CC(=O)N[C@H](Cc2ccccc2)COc2cccc(OC)c2C(=O)N1 [Example 22, (3R,9S,13S)-3-benzyl-7-(2-cyclohexylethyl)-9-isobutyl-16-methoxy-N-(2-(2-methoxyethoxy)ethyl)-10-methyl-5,8,11,15-tetraoxo-2,3,4,5,6,7,8,9,10,11,12,13,14,15-tetradecahydrobenzo[p][1]oxa[4,7,10,14]tetraazacycloheptadecine-13-carboxamide] | – |
